{"source": "patent US8252930B2", "about": "“Azaindole derivatives with a combination of partial nicotinic acetyl-choline receptor agonism and dopamine reuptake inhibition” (Solvay Pharmaceuticals B.V., priority 2006, dated 2012)", "key": {"[1]": {"target": "T1, [^3H]-dopamine uptake in rat striatal synaptosomes (Rattus norvegicus, UniProt P23977)", "T1 construct": "a crude synaptosomal fraction (P2) was prepared by homogenization and centrifugation; from tissue; host or cells: rat striatum, crude synaptosomal fraction (P2)", "T1 sequence (P23977 whole entry)": "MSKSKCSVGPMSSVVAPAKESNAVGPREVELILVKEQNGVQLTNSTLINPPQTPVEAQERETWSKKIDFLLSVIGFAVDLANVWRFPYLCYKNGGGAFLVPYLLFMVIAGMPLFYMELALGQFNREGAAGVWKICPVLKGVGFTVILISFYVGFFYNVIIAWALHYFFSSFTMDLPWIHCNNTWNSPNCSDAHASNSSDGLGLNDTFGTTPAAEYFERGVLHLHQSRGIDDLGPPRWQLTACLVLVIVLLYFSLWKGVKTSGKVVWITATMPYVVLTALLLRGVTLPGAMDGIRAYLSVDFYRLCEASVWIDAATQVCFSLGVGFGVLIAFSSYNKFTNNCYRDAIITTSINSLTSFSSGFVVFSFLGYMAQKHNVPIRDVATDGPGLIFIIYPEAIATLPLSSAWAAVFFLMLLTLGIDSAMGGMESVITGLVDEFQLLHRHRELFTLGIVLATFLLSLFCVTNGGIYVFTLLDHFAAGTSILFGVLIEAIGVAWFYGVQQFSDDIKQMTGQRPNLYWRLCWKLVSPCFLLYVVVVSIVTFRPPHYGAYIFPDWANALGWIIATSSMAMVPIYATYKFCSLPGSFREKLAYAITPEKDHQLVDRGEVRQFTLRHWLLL", "assay": "In vitro [3H]-dopamine uptake in rat striatal synaptosomes", "format": "biochemical", "method": "Subsequently, [^3H]-dopamine (2×10^−7 M final concentration) was added and incubation was continued for 10 min. [^3H]-dopamine uptake was stopped by filtration and the synaptosomes were washed four times with phosphate buffered saline. The amount of [^3H]-dopamine in the synaptosomes was determined by Betaplate liquid scintillation counting. […] Inhibition of DA uptake was performed in duplicate."}}, "note": "Structures can show the parent of a compound that is named as a salt. Where two headings read alike, the source gives them in different places.", "data": [{"smiles": "c1cnc2[nH]c(C3CCCNC3)cc2c1", "note": "(centres unmarked)", "values": [{"measurement": "melting point", "value": "144 to 145", "unit": "°C"}]}, {"smiles": "CN1CCC[C@H]1Cc1cc2cccnc2[nH]1", "values": [{"measurement": "melting point", "value": "130 to 131", "unit": "°C"}]}, {"smiles": "Clc1ccnc2[nH]c(C3CCCNC3)cc12", "note": "(centres unmarked) (as salt: HCl)", "values": [{"measurement": "melting point", "value": "> 250 °C (dec.)"}]}, {"smiles": "C1=C(c2cc3cccnc3[nH]2)CNCC1", "note": "(as salt: HCl) [Compound 25, 2-(1,2,5,6-tetrahydro-pyridin-3-yl)-1H-pyrrolo[2,3-b]pyridine]", "values": [{"measurement": "melting point", "value": "> 275 °C (dec.)"}]}, {"smiles": "c1cnc2[nH]cc(C[C@@H]3CCCN3)c2c1", "note": "(stereo in doubt) [Compound 97, (S)-3-Pyrrolidin-2-ylmethyl-1H-pyrrolo[2,3-b]pyridine]", "values": [{"measurement": "IC50", "setting": "[1]; read-out: Functional activity re-uptake [^3H]-Dopamine pIC50 (converted)", "value": "> 10", "unit": "µM"}]}, {"smiles": "CN1CCC[C@H]1Cc1c[nH]c2ncccc12", "note": "(stereo in doubt) [Compound 99, (S)-3-(1-Methyl-pyrrolidin-2-ylmethyl)-1H-pyrrolo[2,3-b]pyridine]", "values": [{"measurement": "IC50", "setting": "[1]", "value": "> 10", "unit": "µM"}]}, {"smiles": "c1cnc2[nH]cc(C3CN4CCC3CC4)c2c1", "note": "(centres unmarked) [Compound 16, 3-(1H-Pyrrolo[2,3-b]pyridin-3-yl)-1-aza-bicyclo[2.2.2]octane]", "values": [{"measurement": "melting point", "value": 185, "unit": "°C"}]}, {"smiles": "c1cnc2[nH]c(C3CN4CCC3CC4)cc2c1", "note": "(centres unmarked) [Compound 21, 3-(1H-Pyrrolo[2,3-b]pyridin-2-yl)-1-aza-bicyclo[2.2.2]octane]", "values": [{"measurement": "melting point", "value": 190, "unit": "°C"}]}]}
